Among the data in patent publication US20140249135A1, “PIM KINASE INHIBITORS AND METHODS OF THEIR USE” (NOVARTIS AG, priority 2007, published 2014) are EC50 and IC50 values, retold here.

The subject of experiment [1] is MV4-11 cells. Put plainly: Cell proliferation assay (CellTiter-Glo), MV4-11. The format is cell-based. To be noted: Homo sapiens. As to the method: HEL 92.1.7 cells (ATTC No. TIB-180, an erythroleukemia line derived from malignant peripheral blood), MV4-11 cells (ATCC No. CRL-9591, a human acute monocytic leukemia line) and PC3 cells (ATCC No. CRL-1435, a human prostatic adenocarcinoma line) were cultured in RPMI1640 supplemented with 10% FBS, sodium pyruvate and antibiotics. Cells were plated in the same medium at a density of 1000 cells per well into 96 well tissue culture plates, with outside wells vacant, on the day of assay. Test compounds supplied in DMSO were diluted into DMSO at 500 times the desired final concentrations before dilution into culture media to 2 times final concentrations. Equal volumes of 2× compounds were added to the cells in 96 well plates and incubated at 37° C. for 3 days. After 3 days plates were equilibrated to room temperature and equal volume of CellTiter-Glow Reagent (Promega) was added to the culture wells. The plates were agitated briefly and luminescent signal was measured with luminometer.
(ATP-based viability assays read luminescence as a measure of living cells.)

Experiment [2] addresses Pim3 kinase (Homo sapiens, UniProt Q86V86). Kind of experiment: Pim3 ATP depletion assay. The format is biochemical.
Experiment [3] concerns HEL 92.1.7 cells. Kind of experiment: Cell proliferation assay (CellTiter-Glo), HEL 92.1.7. In kind it is cell-based. To be noted: Homo sapiens, read-out: EC50 (μM) HEL 92.1.7. In outline:
(§1)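 CellTiter-Glo luminescence was read after 3-day compound exposure at 37 °C of cells plated at 1000/well in RPMI1640 with 10% FBS. Signal was normalised between DMSO-treated and control-compound-treated wells. EC50 is the concentration giving 50% of maximal effect.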

In experiment [4] the target is T1, human full length PKCE enzyme (Homo sapiens, UniProt Q02156).
T1 construct: human full length PKCE enzyme purchased from InVitrogen; purchased InVitrogen
T1 sequence (Q02156 1-737): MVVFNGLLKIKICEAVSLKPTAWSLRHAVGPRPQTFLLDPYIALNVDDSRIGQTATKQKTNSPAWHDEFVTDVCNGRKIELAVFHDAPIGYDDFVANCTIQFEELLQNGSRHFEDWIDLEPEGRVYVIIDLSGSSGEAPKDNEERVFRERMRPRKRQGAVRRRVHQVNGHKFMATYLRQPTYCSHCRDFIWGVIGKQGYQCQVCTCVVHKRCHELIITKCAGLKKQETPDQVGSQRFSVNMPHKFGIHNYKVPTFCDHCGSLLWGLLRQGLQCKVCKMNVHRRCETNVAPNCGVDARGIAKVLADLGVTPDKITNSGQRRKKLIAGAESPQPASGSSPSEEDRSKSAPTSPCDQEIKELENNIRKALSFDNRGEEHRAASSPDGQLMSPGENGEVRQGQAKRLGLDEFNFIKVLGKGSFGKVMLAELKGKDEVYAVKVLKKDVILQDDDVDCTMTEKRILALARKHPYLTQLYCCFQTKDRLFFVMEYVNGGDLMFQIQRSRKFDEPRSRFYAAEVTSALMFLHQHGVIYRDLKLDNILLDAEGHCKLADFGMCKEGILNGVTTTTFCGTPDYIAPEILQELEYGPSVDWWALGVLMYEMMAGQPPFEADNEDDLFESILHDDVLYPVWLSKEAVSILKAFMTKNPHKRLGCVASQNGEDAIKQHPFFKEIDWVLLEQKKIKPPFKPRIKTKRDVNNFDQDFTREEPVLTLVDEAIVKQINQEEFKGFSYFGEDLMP
Put plainly: In vitro PKCE assay. The conditions noted are these: 10 nM enzyme, 40 uM peptide substrate, 20 uM ATP, KinaseGlo Plus readout; read-out: PKCε IC50. The format is biochemical. For orientation: In Kinase-Glo more light means more ATP remaining.

Experiment [5] deals with PC3 cells. Kind of experiment: Cell proliferation assay (CellTiter-Glo), PC3. In kind it is cell-based. The conditions noted are these: Homo sapiens, PC-3. In outline:
as §1

Experiment [6] concerns the target KDR kinase (Homo sapiens, UniProt P35968). Kind of experiment: KDR AlphaScreen assay. The conditions noted are these: KDR IC50 (μM).
In experiment [7] the target is Pim2 kinase (Homo sapiens, UniProt Q9P1W9). Kind of experiment: Pim2 ATP depletion assay.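 Also: Luciferase-based luminescent readout of ATP remaining after PIM2 phosphorylates a BAD peptide, final 5 nM enzyme, 4 µM ATP, 10 µM peptide, 2.5% DMSO, run to roughly half ATP consumption.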 The format is biochemical.
Chain of Pim2 kinase (Q9P1W9 whole entry): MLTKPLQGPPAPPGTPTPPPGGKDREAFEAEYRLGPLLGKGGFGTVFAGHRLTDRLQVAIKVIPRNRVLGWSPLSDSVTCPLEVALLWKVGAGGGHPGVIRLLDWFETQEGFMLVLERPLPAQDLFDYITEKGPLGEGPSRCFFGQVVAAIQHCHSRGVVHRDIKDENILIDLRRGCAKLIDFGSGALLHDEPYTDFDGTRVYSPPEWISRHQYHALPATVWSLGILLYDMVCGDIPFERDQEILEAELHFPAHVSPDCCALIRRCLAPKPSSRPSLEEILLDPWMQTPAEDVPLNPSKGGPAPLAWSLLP
In experiment [8] the test system is MM1.s (human myeloma cell line). Put plainly: Cell proliferation assay (CellTiter-Glo), MM1.s. To be noted: MM1.s cells. In kind it is cell-based. As to the method: (§2) KMS 11 (human myeloma cell line), were cultured in IMDM supplemented with 10% FBS, sodium pyruvate and antibiotics. Cells were plated in the same medium at a density of 2000 cells per well into 96 well tissue culture plates, with outside wells vacant, on the day of assay. MM1.s (human myeloma cell line), were cultured in RPMI1640 supplemented with 10% FBS, sodium pyruvate and antibiotics. Cells were plated in the same medium at a density of 5000 cells per well into 96 well tissue culture plates, with outside wells vacant, on the day of assay.
(§3) Test compounds supplied in DMSO were diluted into DMSO at 500 times the desired final concentrations before dilution into culture media to 2 times final concentrations. Equal volumes of 2× compounds were added to the cells in 96 well plates and incubated at 37° C. for 3 days.
(§4) After 3 days plates were equilibrated to room temperature and equal volume of CellTiter-Glow Reagent (Promega) was added to the culture wells. The plates were agitated briefly and luminescent signal was measured with luminometer. The percent inhibition of the signal seen in cells treated with DMSO alone vs. cells treated with control compound was calculated and used to determine EC50 values (i.e., the concentration of a test compound that is required to obtain 50% of the maximum effect in the cells) for tested compounds, as shown in Example 763.

The subject of experiment [9] is KMS 11 (human myeloma cell line). Kind of experiment: Cell proliferation assay (CellTiter-Glo), KMS 11. In kind it is cell-based. To be noted: KMS11 cells. As to the method: as §2, §3, §4
In experiment [10] the target is Pim1 kinase (Homo sapiens, UniProt P11309). Put plainly: Pim1 ATP depletion assay.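 Also: Luciferase-luciferin luminescence readout of residual ATP after PIM1 transfers phosphate to a peptide substrate, 40 µM ATP added, reaction run to roughly half ATP consumption.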 The format is biochemical.
Chain of Pim1 kinase (P11309 whole entry): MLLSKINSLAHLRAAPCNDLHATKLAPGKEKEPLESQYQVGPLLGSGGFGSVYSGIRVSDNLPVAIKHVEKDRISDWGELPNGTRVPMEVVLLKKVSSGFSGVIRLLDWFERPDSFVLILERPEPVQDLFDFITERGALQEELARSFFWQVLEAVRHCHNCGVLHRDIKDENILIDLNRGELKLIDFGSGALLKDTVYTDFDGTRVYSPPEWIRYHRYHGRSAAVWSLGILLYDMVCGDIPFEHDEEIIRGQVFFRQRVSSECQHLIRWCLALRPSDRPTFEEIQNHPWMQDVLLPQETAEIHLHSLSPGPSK
[11] abbreviates: Pim1 ATP depletion assay, read-out: IC50 (μM) PIM1.
[12] abbreviates: cell proliferation, MV4-11 cells, read-out: EC50 (μM) MV-4-11.
[13] abbreviates: Pim1 ATP depletion assay, read-out: PIM1 IC50.

The term EC50 denotes the concentration needed to bring the measured effect to its halfway point. For orientation: IC50 means the midpoint of a concentration-inhibition curve.

Read-outs that look alike come from different tables or passages of the source.

Chain of KDR kinase (P35968 20-1356): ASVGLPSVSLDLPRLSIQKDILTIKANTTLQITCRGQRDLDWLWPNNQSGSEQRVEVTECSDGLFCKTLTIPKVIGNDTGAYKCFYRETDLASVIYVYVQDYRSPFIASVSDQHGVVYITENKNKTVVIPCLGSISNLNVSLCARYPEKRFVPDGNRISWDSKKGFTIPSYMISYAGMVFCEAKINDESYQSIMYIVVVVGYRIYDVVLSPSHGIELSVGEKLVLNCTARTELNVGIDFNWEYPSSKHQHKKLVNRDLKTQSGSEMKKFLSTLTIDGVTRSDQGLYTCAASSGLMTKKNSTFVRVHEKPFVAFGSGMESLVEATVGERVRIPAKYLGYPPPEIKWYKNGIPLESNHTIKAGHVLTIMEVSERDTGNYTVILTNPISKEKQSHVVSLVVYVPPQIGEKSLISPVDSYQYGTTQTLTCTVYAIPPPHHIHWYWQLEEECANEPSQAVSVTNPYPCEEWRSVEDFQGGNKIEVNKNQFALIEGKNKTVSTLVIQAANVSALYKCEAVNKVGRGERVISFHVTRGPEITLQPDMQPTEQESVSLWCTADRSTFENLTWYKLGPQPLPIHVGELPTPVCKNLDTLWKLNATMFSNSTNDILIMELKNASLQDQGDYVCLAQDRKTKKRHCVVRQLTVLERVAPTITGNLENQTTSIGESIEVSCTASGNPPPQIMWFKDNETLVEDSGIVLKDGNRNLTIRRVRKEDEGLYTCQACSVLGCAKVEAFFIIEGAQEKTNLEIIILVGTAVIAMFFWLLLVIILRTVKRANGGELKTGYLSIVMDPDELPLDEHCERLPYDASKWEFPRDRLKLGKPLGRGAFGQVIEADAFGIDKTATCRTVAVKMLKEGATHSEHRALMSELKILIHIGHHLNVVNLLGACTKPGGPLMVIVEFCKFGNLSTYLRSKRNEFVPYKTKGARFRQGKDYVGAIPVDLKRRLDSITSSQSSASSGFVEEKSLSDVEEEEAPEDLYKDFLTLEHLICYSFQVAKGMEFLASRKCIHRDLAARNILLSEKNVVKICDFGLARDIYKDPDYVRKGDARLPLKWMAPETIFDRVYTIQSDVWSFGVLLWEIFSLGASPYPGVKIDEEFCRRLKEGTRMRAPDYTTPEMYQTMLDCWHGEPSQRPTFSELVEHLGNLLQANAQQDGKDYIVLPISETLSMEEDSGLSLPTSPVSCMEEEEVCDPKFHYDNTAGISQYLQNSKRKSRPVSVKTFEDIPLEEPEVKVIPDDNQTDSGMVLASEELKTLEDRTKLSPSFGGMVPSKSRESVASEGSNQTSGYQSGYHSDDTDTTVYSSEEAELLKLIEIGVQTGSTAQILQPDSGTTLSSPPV

As to `Nc1nccnc1C(=O)Nc1cnccc1N1CCCC(N)C1` (centres unmarked) [Example 187, 3-amino-N-[4-(3-aminopiperidin-1-yl)pyridin-3-yl]pyrazine-2-carboxamide], the EC50 was less than 1 µM in experiment [1] (MV4-11, read-out: EC50 (μM) MV-4-11); 1 to 5 µM in experiment [3]; 1 to 5 µM in [5]. The IC50 in experiment [2] (read-out: IC50 (μM) PIM3) is less than 1 µM; in [4], less than 1000 nM; in experiment [6], more than 25 µM; in [7] (read-out: IC50 (μM) PIM2), less than 1 µM.
As for `CC(C)NC(=O)c1ccc(F)c(-c2ccc(N)c(C(=O)Nc3cnccc3N3CCC[C@H](N)C3)n2)c1` [Example 317, 3-amino-6-(2-fluoro-5-iso-propylcarbamoyl-phenyl)-pyridine-2-carboxylic acid ((S)-3-amino-3,4,5,6-tetra-hydro-2H-[1,4′]bipyridinyl-3′-yl)-amide], the IC50 in [2] (read-out: IC50 (μM) PIM3), in experiment [7] (read-out: IC50 (μM) PIM2) and in experiment [10] (setting [11]) was less than 1 µM throughout. Moreover, the EC50 in experiment [8] (read-out: EC50 (μM) MM1.s) was less than 1 µM; in experiment [9] (read-out: EC50 (μM) KMS11), 1 to 5 µM; in experiment [3], 1 to 5 µM; in experiment [5] it was more than 10 µM.
Regarding `CN(C)C(=O)c1ccc(F)c(-c2ccc(N)c(C(=O)Nc3cnccc3N3CCC[C@H](N)C3)n2)c1` [Example 328, 3-amino-6-(5-dimethyl-carbamoyl-2-fluoro-phenyl)-pyridine-2-carboxylic acid ((S)-3-amino-3,4,5,6-tetra-hydro-2H-[1,4′]bipyridinyl-3′-yl)-amide], the IC50 in experiment [2] (read-out: IC50 (μM) PIM3), in experiment [7] (read-out: IC50 (μM) PIM2) and in experiment [10] (setting [11]) was less than 1 µM throughout. Besides, the EC50 in experiment [8] (read-out: EC50 (μM) MM1.s) is less than 1 µM; in experiment [9] (read-out: EC50 (μM) KMS11) it was less than 1 µM; in [3] it was 1 to 5 µM.
For the molecule `Nc1ccc(-c2c(F)cccc2F)nc1C(=O)Nc1cnccc1N1CCC[C@H](N)C1` [Example 425, 3-amino-6-(2,6-difluoro-phenyl)-pyridine-2-carboxylic acid ((S)-3-amino-3,4,5,6-tetrahydro-2H-[1,4′]bipyridinyl-3′-yl)-amide], the IC50 in experiment [2] (read-out: IC50 (μM) PIM3) is less than 1 µM; in experiment [4], 1000 to 10000 nM; in experiment [6] it was 10 to 25 µM; in [7] (read-out: IC50 (μM) PIM2), less than 1 µM; in experiment [10] (setting [11]), less than 1 µM. For the same molecule, the EC50 in experiment [8] (read-out: EC50 (μM) MM1.s) was less than 1 µM; in experiment [9] (read-out: EC50 (μM) KMS11), less than 1 µM; in [3], less than 1 µM; in [5], 5 to 10 µM.
For `Nc1ccc(-c2ccccc2Cl)nc1C(=O)Nc1cnccc1N1CCC[C@H](N)C1` [Example 433, 3-amino-6-(2-chloro-phenyl)-pyridine-2-carboxylic acid ((S)-3-amino-3,4,5,6-tetrahydro-2H-[1,4′]bipyridinyl-3′-yl)-amide], the results for the EC50 in experiment [1] (setting [12]) and in experiment [3] were less than 1 µM and 1 to 5 µM, respectively. In addition, the IC50 in experiment [2] (read-out: IC50 (μM) PIM3) is less than 1 µM; in experiment [4], 1000 to 10000 nM; in experiment [6] it was 10 to 25 µM; in [7] (read-out: IC50 (μM) PIM2), less than 1 µM; in experiment [10] (setting [11]), less than 1 µM.
On to `Nc1ccc(-c2ccccc2F)nc1C(=O)Nc1cnccc1N1CCC[C@H](N)C1` [Example 434, 3-amino-6-(2-fluoro-phenyl)-pyridine-2-carboxylic acid ((S)-3-amino-3,4,5,6-tetrahydro-2H-[1,4′]bipyridinyl-3′-yl)-amide], for which the EC50 is less than 1 µM in [1] (setting [12]) and 1 to 5 µM in experiment [3].
Consider `N[C@H]1CCCN(c2ccncc2NC(=O)c2cccc(-c3c(F)cccc3F)n2)C1` [Example 454, 6-(2,6-Difluoro-phenyl)-pyridine-2-carboxylic acid (3-amino-3,4,5,6-tetrahydro-2H-[1,4′]bi-pyridinyl-3′-yl)-amide], for which the IC50 in experiment [2] (read-out: IC50 (μM) PIM3) is less than 1 µM; in experiment [6] it was 10 to 25 µM; in [7] (read-out: IC50 (μM) PIM2) it was less than 1 µM; in experiment [10] (setting [11]), less than 1 µM. Moreover, the EC50 lay in the range of 5 to 10 µM in experiment [8] (read-out: EC50 (μM) MM1.s) and 1 to 5 µM in [9] (read-out: EC50 (μM) KMS11).
On to `COCCOc1nc(-c2ccc(N)c(C(=O)Nc3cnccc3N3CCC[C@H](N)C3)n2)cnc1N` [Example 520, 3-Amino-6-[5-amino-6-(2-methoxy-ethoxy)-pyrazin-2-yl]-pyridine-2-carboxylic acid (3-amino-3,4,5,6-tetrahydro-2H-[1,4′]bipyridinyl-3′-yl)-amide], for which the IC50 in [2] (read-out: IC50 (μM) PIM3) is less than 1 µM; in experiment [6], 1 to 10 µM; in [7] (read-out: IC50 (μM) PIM2) it was less than 1 µM; in experiment [10] (setting [11]) it was less than 1 µM. In addition, the EC50 in experiment [8] (read-out: EC50 (μM) MM1.s) and in experiment [9] (read-out: EC50 (μM) KMS11) was 5 to 10 µM in each case.
For `Nc1cc(F)c(-c2ncccc2F)nc1C(=O)Nc1cnccc1N1CCC[C@H](N)C1` [Example 744, 5-Amino-3,3′-difluoro-[2,2′]bi-pyridinyl-6-carboxylic acid (3-amino-3,4,5,6-tetrahydro-2H-[1,4′]bipyridinyl-3′-yl)-amide], the IC50 in experiment [2] (read-out: PIM3 IC50), in [7] (read-out: PIM2 IC50) and in [10] (setting [13]) was less than 1 µM each time. Further, the EC50 in [8] (read-out: MM1.s EC50) and in experiment [9] (read-out: KMS11 EC50) was 1 to 5 µM in each case.
`CC(C)NC(=O)c1ccc(F)c(-c2ccc(N)c(C(=O)Nc3cnccc3N3CC[C@H](O)[C@H](N)C3)n2)c1` [Example 753, 3-Amino-6-(2-fluoro-5-isopropyl-carbamoyl-phenyl)-pyridine-2-carboxylic acid (3-amino-4-hydroxy-3,4,5,6-tetrahydro-2H-[1,4′]bipyridinyl-3′-yl)-amide]: the IC50 in [2] (read-out: PIM3 IC50), in experiment [7] (read-out: PIM2 IC50) and in experiment [10] (setting [13]) was less than 1 µM in each case. Besides, the EC50 is less than 1 µM in experiment [8] (read-out: MM1.s EC50) and 1 to 5 µM in [9] (read-out: KMS11 EC50).
With `Nc1ccc(-c2c(F)cccc2F)nc1C(=O)Nc1cnccc1N1CC[C@H](O)[C@H](N)C1` [Example 754, 3-Amino-6-(2,6-difluoro-phenyl)-pyridine-2-carboxylic acid (3-amino-4-hydroxy-3,4,5,6-tetra-hydro-2H-[1,4′]bipyridinyl-3′-yl)-amide], the IC50 in experiment [2] (read-out: PIM3 IC50), in experiment [7] (read-out: PIM2 IC50) and in [10] was less than 1 µM throughout. Also, the values for the EC50 in experiment [8] (read-out: MM1.s EC50) and in [9] (read-out: KMS11 EC50) were 1 to 5 µM and less than 1 µM, respectively.
